Experiment [1] addresses cGMP-inhibited 3',5'-cyclic phosphodiesterase 3A (Homo sapiens, UniProt Q14432). Description: Inhibition of core catalytic domain of PDE3A.
The target of experiment [2] is 3',5'-cyclic-AMP phosphodiesterase 4B (Homo sapiens, UniProt Q07343). Description: Inhibition of core catalytic domain of PDE4B.
For experiment [3], the system named is Cavia porcellus. The experiment can be described thus: Bronchodilatory activity in guinea pig assessed as reduction of histamine-induced bronchoconstriction at 0.3 mg/kg, iv relative to control. Type of experiment: functional. On the set-up: scale not given: the % may be the effect or the level left.
Experiment [4] concerns Cavia porcellus. The experiment can be described thus: Bronchodilatory activity in guinea pig assessed as reduction of histamine-induced bronchoconstriction at 0.1 mg/kg, po relative to control. It counts as functional.
The species named for another experiment is Homo sapiens. Description: Selectivity ratio of IC50 for core catalytic domain of PDE4B to IC50 for core catalytic domain of PDE3A.

IC50, Activity and Ratio IC50 data for 21 compounds are collected here from ChEMBL document CHEMBL2069289, “Phosphodiesterase inhibitors. Part 4: design, synthesis and structure-activity relationships of dual PDE3/4-inhibitory fused bicyclic heteroaromatic-4,4-dimethylpyrazolones” (Bioorg Med Chem Lett, 2012).

Calls of active or inactive are those of the source. The calls are words filed in the database; no cut-off is given here.

Sequence of 3',5'-cyclic-AMP phosphodiesterase 4B (Q07343 whole entry, the tested form may be a part): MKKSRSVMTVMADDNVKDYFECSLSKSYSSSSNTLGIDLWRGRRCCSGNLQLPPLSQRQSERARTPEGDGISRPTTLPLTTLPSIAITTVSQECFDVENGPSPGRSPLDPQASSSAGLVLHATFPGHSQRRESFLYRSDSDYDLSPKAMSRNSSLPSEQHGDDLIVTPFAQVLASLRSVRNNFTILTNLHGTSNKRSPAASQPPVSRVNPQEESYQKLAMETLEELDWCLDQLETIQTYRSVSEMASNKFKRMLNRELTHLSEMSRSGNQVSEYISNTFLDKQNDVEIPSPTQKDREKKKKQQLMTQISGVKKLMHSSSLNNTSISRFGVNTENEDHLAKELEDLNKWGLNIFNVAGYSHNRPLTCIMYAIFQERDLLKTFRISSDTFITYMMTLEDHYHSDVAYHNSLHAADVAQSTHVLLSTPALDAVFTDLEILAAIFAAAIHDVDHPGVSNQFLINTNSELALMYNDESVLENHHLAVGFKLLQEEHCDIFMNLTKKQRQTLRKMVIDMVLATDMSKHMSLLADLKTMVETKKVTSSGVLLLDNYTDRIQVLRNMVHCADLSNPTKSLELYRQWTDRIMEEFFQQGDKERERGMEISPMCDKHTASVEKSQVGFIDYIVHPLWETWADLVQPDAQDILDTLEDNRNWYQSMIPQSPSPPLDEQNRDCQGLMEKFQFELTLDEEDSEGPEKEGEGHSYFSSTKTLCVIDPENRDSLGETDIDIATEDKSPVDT
Sequence of cGMP-inhibited 3',5'-cyclic phosphodiesterase 3A (Q14432 whole entry, the tested form may be a part): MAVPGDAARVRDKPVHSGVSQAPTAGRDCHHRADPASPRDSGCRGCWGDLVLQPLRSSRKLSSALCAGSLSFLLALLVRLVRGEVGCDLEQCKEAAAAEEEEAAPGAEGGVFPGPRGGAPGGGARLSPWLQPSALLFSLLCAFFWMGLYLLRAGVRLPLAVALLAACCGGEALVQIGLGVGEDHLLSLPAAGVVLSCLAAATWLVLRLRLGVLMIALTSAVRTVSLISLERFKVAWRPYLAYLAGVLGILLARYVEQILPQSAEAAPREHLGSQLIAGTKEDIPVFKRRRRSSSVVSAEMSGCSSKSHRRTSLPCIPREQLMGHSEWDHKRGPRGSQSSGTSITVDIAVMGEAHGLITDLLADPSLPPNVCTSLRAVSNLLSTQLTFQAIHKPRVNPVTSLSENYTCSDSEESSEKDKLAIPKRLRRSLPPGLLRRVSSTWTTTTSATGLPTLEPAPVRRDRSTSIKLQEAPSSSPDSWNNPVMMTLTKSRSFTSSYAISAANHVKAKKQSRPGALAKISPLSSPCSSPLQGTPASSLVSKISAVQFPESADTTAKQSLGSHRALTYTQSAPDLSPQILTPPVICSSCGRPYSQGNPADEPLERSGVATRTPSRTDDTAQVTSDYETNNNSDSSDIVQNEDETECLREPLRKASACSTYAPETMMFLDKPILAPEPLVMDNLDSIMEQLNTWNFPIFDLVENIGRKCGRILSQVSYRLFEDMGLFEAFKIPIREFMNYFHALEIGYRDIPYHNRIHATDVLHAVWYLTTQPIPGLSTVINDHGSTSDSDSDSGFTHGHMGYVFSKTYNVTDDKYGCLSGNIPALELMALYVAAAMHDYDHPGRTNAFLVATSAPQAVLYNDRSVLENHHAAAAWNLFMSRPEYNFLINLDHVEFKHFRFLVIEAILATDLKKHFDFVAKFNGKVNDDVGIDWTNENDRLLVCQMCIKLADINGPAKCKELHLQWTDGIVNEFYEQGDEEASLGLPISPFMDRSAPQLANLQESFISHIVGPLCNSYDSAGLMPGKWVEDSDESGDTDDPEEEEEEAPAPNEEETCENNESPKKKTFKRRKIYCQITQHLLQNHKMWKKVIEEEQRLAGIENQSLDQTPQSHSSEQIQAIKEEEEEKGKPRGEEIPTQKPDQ

`CCc1ccc2c(C3=NNC(=O)C3(C)C)ccc(OC)c2n1`: the IC50 – broadly, the concentration at which inhibition is half-maximal – amounted to 10100 nM in experiment [1] and 2580 nM in experiment [2].

Regarding `CCc1cc2c(C3=NNC(=O)C3(C)C)ccc(C(C)=O)n2n1`, the half-maximal inhibitory concentration (IC50) in experiment [1] was 2500 nM; in experiment [2] it was 7.5 nM.

Take `COc1ccc(C2=NNC(=O)C2(C)C)c2[nH]c(C(F)(F)F)nc12`: the IC50 in experiment [1] was 14100 nM; in experiment [2] it was 200 nM.

`CCc1cc2c(C3=NNC(=O)C3(C)C)ccc(C)n2n1`: the figures for the half-inhibitory concentration (IC50) in experiment [1] and in experiment [2] were 2370 nM and 160 nM, respectively.

Take `CCc1cc2c(C3=NNC(=O)C3(C)C)ccc(OC)n2n1`: the IC50 in experiment [1] is 9210 nM; in experiment [2], 410 nM.

Take `COc1ccc(C2=NNC(=O)C2(C)C)c2sc(C(F)(F)F)nc12`: the IC50 is 540 nM in experiment [1] and 63 nM in experiment [2]. In addition, in the experiment with Cavia porcellus [3], the Activity is 96%. Also, the result in the experiment on Cavia porcellus [4] was inactive.

Take `COc1ccc(C2=NNC(=O)C2(C)C)n2cc(C(F)(F)F)nc12`: the concentration for half-maximal inhibition (IC50) amounted to 140 nM in experiment [1] and 150 nM in experiment [2]. Further, the Activity was 100% in the experiment with Cavia porcellus [3] and more than 70% in the experiment on Cavia porcellus [4].

As for `CCc1cc2c(C3=NNC(=O)C3(C)C)ccc(CC)n2n1`, the IC50 in experiment [1] amounted to 2000 nM; in experiment [2] it was 17 nM.

As to `COc1ccc(C2=NNC(=O)C2(C)C)c2cc(C(F)(F)F)sc12`, the values for the IC50 in experiment [1] and in experiment [2] were 5360 nM and 690 nM, respectively.

With `CCc1cc2c(C3=NNC(=O)C3(C)C)ccc(NC)n2n1`, the results for the IC50 in experiment [1] and in experiment [2] were 75600 nM and 15 nM, respectively. In the experiment listed under Homo sapiens, the Ratio IC50 came to 5000.

Turning to `COc1ccc(C2=NNC(=O)C2(C)C)c2cc(C(F)F)nn12`, the IC50 worked out at 3280 nM in experiment [1] and 50 nM in experiment [2].

With `COc1ccc(C2=NNC(=O)C2(C)C)c2cc(C3CC3)nn12`, the values for the IC50 in experiment [1] and in experiment [2] were 6170 nM and 150 nM, respectively.

On to `CCc1cc2c(C3=NNC(=O)CC3C)ccc(OC)n2n1` (racemic), for which the IC50 in experiment [1] came to 11300 nM; in experiment [2] it was 470 nM.

On to `COc1ccc(C2=NNC(=O)CC2C)c2cc(C(F)(F)F)nn12` (single isomer, unassigned; (-)), for which the IC50 in experiment [1] came out at 360 nM; in experiment [2], 42 nM.

Consider `COc1ccc(C2=NNC(=O)C2(C)C)c2ccnn12`, for which the IC50 came to 10800 nM in experiment [1] and 2930 nM in experiment [2].

Take `CCc1cc2c(C3=NNC(=O)C3(C)C)ccc(CO)n2n1`: the IC50 was determined as 1590 nM in experiment [1] and 35 nM in experiment [2].

As for `COc1ccc(C2=NNC(=O)C2(C)C)c2ccc(C(F)(F)F)nc12`, the figures for the IC50 in experiment [1] and in experiment [2] were 6650 nM and 1070 nM, respectively.

For the compound `CCc1cc2c(C3=NNC(=O)C3(C)C)ccc(SC)n2n1`, the IC50 in experiment [1] is 9010 nM; in experiment [2], 79 nM.

In the case of `COc1ccc(C2=NNC(=O)C2(C)C)c2cc(C(F)(F)F)nn12`, the IC50 in experiment [1] came to 4130 nM; in experiment [2] it was 110 nM.

For the compound `CCc1cc2c(C3=NNC(=O)C3(C)C)ccc(C(C)O)n2n1` (racemic), the figures for the IC50 in experiment [1] and in experiment [2] were 1630 nM and 3.4 nM, respectively.

As for `COc1ccc(C2=NNC(=O)C2(C)C)c2cc(C(F)(F)F)oc12`, the IC50 was 1100 nM in experiment [1] and 360 nM in experiment [2].
